Test results reported in patent US9650339B2, “Inhibitors of histone demethylases” (Gilead Sciences, Inc., priority 2013, dated 2017).

Legend:
[1] = tested on: JJN3; experiment: Cell proliferation assay JJN3; format: cell-based; conditions: Homo sapiens, JJN-3; JJN3, Plasma cell leukemia; method of Example 5
Experimental: MCF7 cells were seeded in multi well plates at a density optimized to give approximately 90% confluent cells at the time of harvest. Cells were incubated for 24 hours before addition of compound. Compounds were diluted in complete medium and added to the plates in duplicates. The final concentration of DMSO was maximum 0.5%. Complete medium used was DMEM with GlutaMAX containing 10% FBS and pen/strep.
120 hours after addition of compounds, the plates were harvested and analyzed by ATPlite 1 Step (Perkin Elmer, cat no 6016739) according to the manufactures recommendation.
The assays were performed by the method of Example 5 by seeding the relevant cell line at a density optimized to give approximately 90% confluent cells at the time of harvest.

[2] = tested on: OPM-2 subcutaneous mouse xenograft model of multiple myeloma; experiment: Inhibition of tumor growth in mouse xenograft model; format: in vivo, NOD/SCID mice (Mus Musculus)
Source text: Briefly, NOD/SCID mice γ-irradiated with ^60Co (200 rad) (12 animals/group) were inoculated subcutaneously with 8×10^6 OPM-2 cells assisted with Matrigel. Dosing according to the table below started when tumors reached an average size of ˜100 mm^3 (day 15). Dosing continued until the average size of tumors in the vehicle group reached ˜2000 mm^3 (day 31).
Animals were 7 weeks old female NOD/SCID mice (Mus Musculus), supplied by Beijing HFK Bio-Technology Co. Ltd. (Beijing, china). Body weight was approx. 16-23 g. Before commencement of treatment, all animals were weighed and tumor volumes were measured, and mice were assigned into groups using randomized block design based upon their tumor volumes.
OPM-2 tumor cells were maintained in vitro in RPMI1640 medium supplemented with 20% fetal bovine serum at 37° C. in an atmosphere of 5% CO2 in air. The tumor cells were routinely subcultured twice weekly. The cells growing in an exponential growth phase were harvested and counted for tumor inoculation.
Tumor sizes were measured three times weekly in two dimensions using a caliper, and the volume was expressed in mm^3 using the formula: V=0.5 a×b^2 where a and b were the long and short diameters of the tumor, respectively.

CCN(CC)CCCCNCc1cc(/C=N/CCO)ccn1 [Compound 61, 2-[{[2-({[4-(diethylamino)-butyl]amino}-methyl)pyridin-4-yl]methylidene}-amino]ethan-1-ol]
EC50 [1]: > 2500 nM
Tumor Volume ([2]; BID × 14 i.p. 1 mg/kg, day 15 after inoculation (start of dosing)): 101 ± 12 mm^3
Tumor Volume ([2]; BID × 14 i.p. 1 mg/kg, day 17 after inoculation): 249 ± 32 mm^3
Tumor Volume ([2]; BID × 14 i.p. 1 mg/kg, day 19 after inoculation): 320 ± 45 mm^3
Tumor Volume ([2]; BID × 14 i.p. 1 mg/kg, day 21 after inoculation): 577 ± 85 mm^3
Tumor Volume ([2]; BID × 14 i.p. 1 mg/kg, day 24 after inoculation): 951 ± 124 mm^3
Tumor Volume ([2]; BID × 14 i.p. 1 mg/kg, day 26 after inoculation): 1259 ± 169 mm^3
Tumor Volume ([2]; BID × 14 i.p. 1 mg/kg, day 28 after inoculation): 1800 ± 202 mm^3
Tumor Volume ([2]; BID × 14 i.p. 1 mg/kg, day 31 after inoculation): 2864 ± 334 mm^3
Tumor Volume ([2]; BID × 14 i.p. 10 mg/kg, day 15 after inoculation (start of dosing)): 101 ± 11 mm^3
Tumor Volume ([2]; BID × 14 i.p. 10 mg/kg, day 17 after inoculation): 198 ± 28 mm^3
Tumor Volume ([2]; BID × 14 i.p. 10 mg/kg, day 19 after inoculation): 276 ± 44 mm^3
Tumor Volume ([2]; BID × 14 i.p. 10 mg/kg, day 21 after inoculation): 519 ± 67 mm^3
Tumor Volume ([2]; BID × 14 i.p. 10 mg/kg, day 24 after inoculation): 694 ± 92 mm^3
Tumor Volume ([2]; BID × 14 i.p. 10 mg/kg, day 26 after inoculation): 928 ± 136 mm^3
Tumor Volume ([2]; BID × 14 i.p. 10 mg/kg, day 28 after inoculation): 1289 ± 178 mm^3
Tumor Volume ([2]; BID × 14 i.p. 10 mg/kg, day 31 after inoculation): 1996 ± 302 mm^3
Tumor Volume ([2]; BID × 14 i.p. 20 mg/kg, day 15 after inoculation (start of dosing)): 101 ± 12 mm^3
Tumor Volume ([2]; BID × 14 i.p. 20 mg/kg, day 17 after inoculation): 188 ± 25 mm^3
Tumor Volume ([2]; BID × 14 i.p. 20 mg/kg, day 19 after inoculation): 292 ± 50 mm^3
Tumor Volume ([2]; BID × 14 i.p. 20 mg/kg, day 21 after inoculation): 440 ± 77 mm^3
Tumor Volume ([2]; BID × 14 i.p. 20 mg/kg, day 24 after inoculation): 766 ± 143 mm^3
Tumor Volume ([2]; BID × 14 i.p. 20 mg/kg, day 26 after inoculation): 1029 ± 196 mm^3
Tumor Volume ([2]; BID × 14 i.p. 20 mg/kg, day 28 after inoculation): 1298 ± 236 mm^3
Tumor Volume ([2]; BID × 14 i.p. 20 mg/kg, day 31 after inoculation): 1573 ± 261 mm^3
